In PMC6172068 (Cancer Science, 2018):

Key:
[1] = 12-lead electrocardiogram QT interval; format: in vivo, Japanese patients
[2] = tested on: FLT3 receptors expressing FLT3-TKD D835 mutations; details: leukemic cells; cited from earlier work
[3] = one patient who received 20 mg/d

In the case of `CCc1nc(C(N)=O)c(Nc2ccc(N3CCC(N4CCN(C)CC4)CC3)c(OC)c2)nc1NC1CCOCC1` [gilteritinib], the “possible treatment-related prolongation of the QTcF interval” value ([1]; 1 patient, 40 mg/d dose cohort) is reported as 4.2%, the “prolonged QT interval identified as an AE” value ([1]; 2 patients (20 mg/d and 40 mg/d)) is reported as 8.3% and the “patients with maximum QTcF change of >30 ms” value ([1]; 5 of 22 evaluable patients) is reported as 22.7%. The “patients with prolonged QT interval of >450 ms (QTcF)” value ([1]; 9 of 24 patients) was 37.5%, the “maximum postbaseline QTcF change from baseline” value [1, 3] was 65 ms and the “mean maximum postbaseline QTcF” value [1, 3] was 486 ms. The “inhibition of FLT3 receptors expressing FLT3-TKD D835 mutations” value [2] was “strongly inhibited”.
